In US20100267753A1, “METHODS OF TREATING DISORDERS ASSOCIATED WITH PROTEIN KINASE CK2 ACTIVITY” (priority 2009, published 2010):
Entries after “also recorded” stand apart in the source; their conditions may differ.

Experiments:
HIPK3 = HIPK3 (Homo sapiens, UniProt Q9H422); experiment: Kinase panel IC-50, HIPK3; format: biochemical
DYRK2 = biological target: T1, DYRK2 (Homo sapiens, UniProt Q92630); experiment: Kinase panel IC-50, DYRK2; format: biochemical
T1 sequence (Q92630 1-601): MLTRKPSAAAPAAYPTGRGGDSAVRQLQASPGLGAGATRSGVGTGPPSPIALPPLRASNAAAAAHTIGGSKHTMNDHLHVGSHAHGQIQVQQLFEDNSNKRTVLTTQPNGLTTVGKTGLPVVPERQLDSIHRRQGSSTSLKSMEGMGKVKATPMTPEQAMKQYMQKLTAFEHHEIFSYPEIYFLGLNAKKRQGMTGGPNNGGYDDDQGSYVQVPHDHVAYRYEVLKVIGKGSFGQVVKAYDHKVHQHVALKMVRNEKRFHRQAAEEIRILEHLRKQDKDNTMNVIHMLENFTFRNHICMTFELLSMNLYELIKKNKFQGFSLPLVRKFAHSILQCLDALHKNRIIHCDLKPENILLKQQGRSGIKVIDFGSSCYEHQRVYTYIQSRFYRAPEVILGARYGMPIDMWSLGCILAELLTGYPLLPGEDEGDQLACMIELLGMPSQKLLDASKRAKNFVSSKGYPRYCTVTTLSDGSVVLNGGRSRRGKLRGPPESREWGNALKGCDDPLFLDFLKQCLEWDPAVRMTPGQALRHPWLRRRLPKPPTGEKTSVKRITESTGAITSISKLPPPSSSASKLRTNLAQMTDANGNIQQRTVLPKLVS

[1] = Pharmacokinetics in mouse (IV bolus or oral dose); format: in vivo; conditions: Mouse; for Cmax: read-out: Cmax
Protocol: (§1) The pharmacokinetics properties of drugs were investigated in three species, following an intravenous (IV) bolus or oral (PO) dose of Compound K at the dosages indicated in the chart. Blood samples were collected at predetermined times and the plasma separated. Plasma was separated from the blood samples collected at 5, 15 and 30 minutes and 1, 2, 4, 8 and 24 hours post-dose.
Drug levels were quantified by the LC/MS/MS method described below. Noncompartmental pharmacokinetic analysis was applied for intravenous administration. […] The terminal t1/2 and C0 were calculated using the last three and the first three data points, respectively
(§2) Bioanalysis was performed using a Quattro Micro LC/MS/MS instrument in the MRM detection mode, with an internal standard (1S). Briefly, 15 μL plasma samples were prepared for analysis using protein precipitation with 120 μL of acetonitrile. The supernatants were transferred into a 96 well plate and subjected to LC-MS/MS analysis using a Phenomenex Polar-RP HPLC column. The mobile phases were 10 mM NH4HCO3 in water (Solution-A) and 10 mM NH4HCO3 in methanol (Solution-B). The column was initially equilibrated with 25% Solution-B and followed with 100% Solution B over 5 minutes. […] Quantitation of the analytes was performed in the batch mode with two bracketing calibration curves according to the bioanalytical sample list.

[2] = Pharmacokinetics in dog (IV bolus or oral dose); format: in vivo; conditions: for AUC(0-inf) / Cmax / half-life / Vd: plasma; for half-life: read-out: Terminal T1/2 (converted); for Vd: read-out: Vdss
Protocol: as §1
Drug levels were quantified by the LC/MS/MS method described below. Noncompartmental pharmacokinetic analysis was applied for intravenous administration. A linear trapezoidal rule was used to compute AUC(0-24). The terminal t1/2 and C0 were calculated using the last three and the first three data points, respectively
as §2

[3] = tested on: formalin-induced persistent pain; experiment: Formalin-induced persistent pain model (flinching); format: in vivo, ICR mice
Protocol: See Hunskaar, et al., “The formalin test in mice: Dissociation between inflammatory and non-inflammatory pain,” Pain, vol. […] 89, 53-63 (2000). These tests were conducted with ICR mice, in accordance with guidelines established by the International Association for the Study of Pain. Compounds of the invention were used as solutions of about 3-20 mg/mL in aqueous solution at about pH 8. […] The test animals were monitored for at least 40 minutes, during which time the number of flinches occurring during each 5-minute period were observed and recorded. A cohort of 12 animals were used for each dose level of each compound tested.
The compounds were administered orally in a single dose, of 30, 100, and 200 mg/kg, one hour prior to injection of formalin Pain response was measured by flinching frequency.

HIV-1 = experiment: U1 latent infection assay, antiviral (reverse transcriptase); format: cell-based; conditions: U1 latent infection assay
Protocol: Histocytic leukemia cell line U937, latently infected with HIV-1, are treated with TNFα to induce virus expression in the presence of test compound. Antiviral activity is determined as a reduction in reverse transcriptase after 72 hr incubation.
TI=TC/IC; also referred to as Therapeutic Index values (TI) or Antiviral Index (AI)
The histocytic leukemia cell line U937, latently infected with HIV-1, was treated with TNFα to induce virus expression in the presence of test compound. Antiviral activity was determined as a reduction in reverse transcriptase after 72 hr incubation. Temacrazine, an inhibitor of HIV transcription initiation, was used as the positive control for the assay.

HIV-1 isolates = experiment: PBMC assay, virus production; format: cell-based
Protocol: Acute infection of HIV-1 isolates (CXCR4-tropic HIV-1 Subtype B and CCR5-tropic HIV-1 Subtype) using fresh human PBMCs from multiple donors (PMA and IL-2 stimulated). Antiviral activity determined as a reduction in reverse transcriptase after 7-day incubation.
Antiviral activity was determined as a reduction in reverse transcriptase after 7-day incubation. AZT, a nucleoside analog reverse transcriptase inhibitor, was used as the positive control for the assay.

IL-8 = IL-8 production in prostate cancer cells; format: cell-based
xenograft tumor = experiment: Xenograft tumor growth (pre-clinical); format: in vivo; conditions: single agent
[4] = Dog, 1.6 mg/kg IV, different lot
[5] = Dog, 7.7 mg/kg PO, filled capsules, different lot
[6] = Dog, 8.2 mg/kg PO, filled capsules

Sequence of HIPK3 (Q9H422 whole entry, species assumed): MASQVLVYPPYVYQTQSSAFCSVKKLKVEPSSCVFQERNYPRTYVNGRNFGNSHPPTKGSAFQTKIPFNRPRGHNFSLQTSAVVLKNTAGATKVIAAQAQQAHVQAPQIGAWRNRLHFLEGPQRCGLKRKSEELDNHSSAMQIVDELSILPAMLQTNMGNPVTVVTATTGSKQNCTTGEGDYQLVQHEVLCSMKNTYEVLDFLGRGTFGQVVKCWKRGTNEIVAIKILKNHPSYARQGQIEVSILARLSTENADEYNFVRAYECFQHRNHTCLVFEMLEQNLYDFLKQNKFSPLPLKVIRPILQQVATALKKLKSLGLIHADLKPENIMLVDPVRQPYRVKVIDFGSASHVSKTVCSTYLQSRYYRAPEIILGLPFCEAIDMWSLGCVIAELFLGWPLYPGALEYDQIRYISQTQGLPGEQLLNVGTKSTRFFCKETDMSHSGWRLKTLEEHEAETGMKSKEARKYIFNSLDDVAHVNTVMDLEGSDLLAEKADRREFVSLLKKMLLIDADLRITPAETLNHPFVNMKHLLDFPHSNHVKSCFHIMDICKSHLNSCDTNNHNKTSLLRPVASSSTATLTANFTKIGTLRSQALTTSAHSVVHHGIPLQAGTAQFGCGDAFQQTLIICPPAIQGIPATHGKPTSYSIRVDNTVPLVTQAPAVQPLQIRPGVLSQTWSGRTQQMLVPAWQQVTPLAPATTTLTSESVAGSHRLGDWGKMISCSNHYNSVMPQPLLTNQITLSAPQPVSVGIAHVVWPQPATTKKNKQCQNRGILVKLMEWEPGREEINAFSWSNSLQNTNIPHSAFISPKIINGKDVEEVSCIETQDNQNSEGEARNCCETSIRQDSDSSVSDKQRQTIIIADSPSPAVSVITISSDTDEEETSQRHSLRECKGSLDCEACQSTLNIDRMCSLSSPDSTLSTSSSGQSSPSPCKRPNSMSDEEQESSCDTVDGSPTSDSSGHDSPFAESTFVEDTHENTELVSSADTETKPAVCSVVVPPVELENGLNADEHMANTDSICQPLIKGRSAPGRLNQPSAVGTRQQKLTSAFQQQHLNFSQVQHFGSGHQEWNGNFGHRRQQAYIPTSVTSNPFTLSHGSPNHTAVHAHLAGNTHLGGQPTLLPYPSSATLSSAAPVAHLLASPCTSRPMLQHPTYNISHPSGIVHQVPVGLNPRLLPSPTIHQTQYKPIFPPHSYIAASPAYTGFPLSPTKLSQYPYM

## O=C(O)c1ccc2c(c1)nc(Nc1cccc(Cl)c1)c1ccncc12 [Compound K, 5-(3-chlorophenylamino)benzo[c][2,6]naphthyridine-8-carboxylic acid]
HIPK3
  IC50: 45 nM
DYRK2
  IC50: 91 nM
[1]; 5 mg/kg IV
  CLs: 41.7 mL/min/kg
  Terminal T1/2: 5.0 h
[1]; 25 mg/kg PO
  % F0-inf: 20.1%
[1]; in vivo, 5 mg/kg IV, 25 mM sodium phosphate buffer
  AUC(0-inf): 2000 ng·h/mL
[1]; in vivo, 5 mg/kg IV
  Cmax: 6700 ng/mL
[1]; in vivo, 5 mg/kg IV, read-out: Vdss
  Vd: 18.1 L/kg
[1]; in vivo, 25 mg/kg PO, 25 mM phosphate buffer
  AUC(0-inf): 2010 ng·h/mL
[1]; in vivo, 25 mg/kg PO
  Cmax: 311 ng/mL
[1]; in vivo, 25 mg/kg PO, read-out: Terminal T1/2 (converted)
  half-life: 7.1 h
[2]; [4]
  CLs: 15 mL/min/kg
  Cmax: 4440 ng/mL
  half-life: 8.3 h
  Vd: 11.3 L/kg
[2]; Dog, 1.9 mg/kg IV
  CLs: 12 mL/min/kg
  Terminal T1/2: 8.3 h
  Cmax: 5780 ng/mL
  Vd: 8.9 L/kg
[2]; [5]
  % F0-inf: 41.8%
  Cmax: 2730 ng/mL
  half-life: 9.9 h
[2]; [6]
  % F0-inf: 51.5%
  AUC(0-inf): 5650 ng·h/mL
  Cmax: 2180 ng/mL
  half-life: 5.2 h
[2]; dog, iv, 1.6 mg/kg
  AUC(0-inf): 1640 ng·h/mL
[2]; dog, po, 7.7 mg/kg
  AUC(0-inf): 3440 ng·h/mL
[2]; Dog, 1.9 mg/kg IV, 25 mM sodium phosphate buffer
  AUC(0-inf): 2540 ng·h/mL
[3]; 10-40 minute phase post-injection, single oral dose 30, 100, 200 mg/kg
  formalin-induced flinching, Phase II: significantly reduced formalin-induced flinching; also recorded: statistically significant effects were seen in two of the three test groups
[3]; 10-40 minute phase, 30 mg/kg oral
  formalin-induced flinching, Phase II: effective
[3]; 10-40 minute phase, 200 mg/kg oral
  formalin-induced flinching, Phase II: effective
[3]; first 9 minute phase post-injection, single oral dose 30, 100, 200 mg/kg one hour prior to formalin
  formalin-induced flinching, Phase I: neither compound affected rates of flinching; also recorded: not statistically significant
HIV-1
  inhibition of virus production: no significant inhibition of virus production
HIV-1 isolates
  inhibition of virus production: no significant inhibition of virus production
IL-8; ELISA (24 hr)
  IL-8 production: suppression of IL-8 production
IL-8; qRT-PCR (8 hr)
  IL-8 production: suppression of IL-8 production
Xenograft tumor
  xenograft tumor growth: single-agent potency in suppressing xenograft tumor growth
